From ChEMBL document CHEMBL4020728 (Bioorg Med Chem, 2017)

How the values were obtained:
Carbonic anhydrase 1 = Carbonic anhydrase 1 (Homo sapiens, UniProt P00915); test: Inhibition of recombinant human carbonic anhydrase-1 assessed as reduction in CO2 hydration preincubated for 10 mins measured for 5 to 10 secs by stopped flow assay
Carbonic anhydrase 2 = Carbonic anhydrase 2 (Homo sapiens, UniProt P00918); test: Inhibition of recombinant human carbonic anhydrase-2 assessed as reduction in CO2 hydration preincubated for 10 mins measured for 5 to 10 secs by stopped flow assay
Carbonic anhydrase 9 = Carbonic anhydrase 9 (Homo sapiens, UniProt Q16790)
Description: Inhibition of recombinant human carbonic anhydrase-9 assessed as reduction in CO2 hydration preincubated for 10 mins measured for 5 to 10 secs by stopped flow assay

Carbonic anhydrase 12 = Carbonic anhydrase 12 (Homo sapiens, UniProt O43570); test: Inhibition of recombinant human carbonic anhydrase-12 assessed as reduction in CO2 hydration preincubated for 10 mins measured for 5 to 10 secs by stopped flow assay
Sequence of Carbonic anhydrase 12 (O43570 whole entry): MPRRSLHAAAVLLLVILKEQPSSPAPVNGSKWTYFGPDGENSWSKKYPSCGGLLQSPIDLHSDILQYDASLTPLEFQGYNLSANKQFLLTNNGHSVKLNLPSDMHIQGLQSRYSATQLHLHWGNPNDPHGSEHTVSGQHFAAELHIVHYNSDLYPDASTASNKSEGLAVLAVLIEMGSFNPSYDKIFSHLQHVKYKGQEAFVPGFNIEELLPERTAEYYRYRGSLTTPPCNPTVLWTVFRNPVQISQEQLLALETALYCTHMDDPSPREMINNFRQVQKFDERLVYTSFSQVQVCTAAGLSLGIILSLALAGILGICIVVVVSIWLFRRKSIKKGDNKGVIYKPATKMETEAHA

Sequence of Carbonic anhydrase 1 (P00915 whole entry): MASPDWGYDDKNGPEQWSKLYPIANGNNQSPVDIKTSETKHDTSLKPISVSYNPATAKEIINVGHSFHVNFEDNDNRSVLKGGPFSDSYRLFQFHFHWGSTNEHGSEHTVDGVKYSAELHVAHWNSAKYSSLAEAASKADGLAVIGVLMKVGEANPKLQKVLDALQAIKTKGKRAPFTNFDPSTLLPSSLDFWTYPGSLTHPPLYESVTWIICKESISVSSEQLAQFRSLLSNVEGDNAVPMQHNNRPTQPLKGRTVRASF

Structure (SMILES) | Ki (Carbonic anhydrase 1) [µM] | Ki (Carbonic anhydrase 2) [µM] | Ki (Carbonic anhydrase 9) [nM] | Ki (Carbonic anhydrase 12) [nM]
CCCNS(=O)(=O)c1ccccc1C(=O)O | > 10 | > 10 | 481 | –
CCCCNS(=O)(=O)c1ccccc1C(=O)O | > 10 | > 10 | 436 | –
CCCCCN1C(=O)c2ccccc2S1(=O)=O | > 10 | > 10 | 102 | 34
CCCCN1C(=O)c2ccccc2S1(=O)=O | > 10 | > 10 | 164 | –
O=C1c2ccccc2S(=O)(=O)N1CCc1ccccc1 | > 10 | > 10 | 76.1 | 10.4
O=C(O)c1ccccc1S(=O)(=O)NCc1ccc(Br)cc1 | > 10 | – | 277 | –
O=C1c2ccccc2S(=O)(=O)N1Cc1ccccc1 | > 10 | > 10 | 89.2 | –
CCCCCNS(=O)(=O)c1ccccc1C(=O)O | > 10 | > 10 | 392 | –
CC#CCNS(=O)(=O)c1ccccc1C(=O)O | > 10 | > 10 | 250 | –
CCCN1C(=O)c2ccccc2S1(=O)=O | > 10 | > 10 | 209 | –
CCN1C(=O)c2ccccc2S1(=O)=O | > 10 | > 10 | 236 | –
CC#CCN1C(=O)c2ccccc2S1(=O)=O | > 10 | > 10 | 563 | –
O=C(O)c1ccccc1S(=O)(=O)NCc1ccccc1 | > 10 | – | 342 | –
